Source: ChEMBL document CHEMBL5678800 (Mol Cancer Ther, 2009)

Assays:
GEO [1] = experiment: Antitumor activity against human GEO cells xenografted in nude mouse assessed as tumor growth inhibition at 6.25 mg/kg, po administered for 3 days in presence of cetuximab at 0.25 mg/kg relative to control; type: functional; settings: 72 h, time 3 day, read-out: TGI
GEO [2] = experiment: Antitumor activity against human GEO cells xenografted in nude mouse assessed as tumor growth delay time at 12.5 mg/kg, po administered for 3 days in presence of cetuximab at 0.125 mg/kg relative to control; type: functional; settings: time 3 day
[3] = target: T1, Protein kinase C zeta type (Homo sapiens, UniProt Q05513); experiment: Inhibition of recombinant PKCzeta (unknown origin) incubated for 60 mins in presence of ATP by electrophoretic caliper fluorescence analysis
T1 sequence (Q05513 whole entry): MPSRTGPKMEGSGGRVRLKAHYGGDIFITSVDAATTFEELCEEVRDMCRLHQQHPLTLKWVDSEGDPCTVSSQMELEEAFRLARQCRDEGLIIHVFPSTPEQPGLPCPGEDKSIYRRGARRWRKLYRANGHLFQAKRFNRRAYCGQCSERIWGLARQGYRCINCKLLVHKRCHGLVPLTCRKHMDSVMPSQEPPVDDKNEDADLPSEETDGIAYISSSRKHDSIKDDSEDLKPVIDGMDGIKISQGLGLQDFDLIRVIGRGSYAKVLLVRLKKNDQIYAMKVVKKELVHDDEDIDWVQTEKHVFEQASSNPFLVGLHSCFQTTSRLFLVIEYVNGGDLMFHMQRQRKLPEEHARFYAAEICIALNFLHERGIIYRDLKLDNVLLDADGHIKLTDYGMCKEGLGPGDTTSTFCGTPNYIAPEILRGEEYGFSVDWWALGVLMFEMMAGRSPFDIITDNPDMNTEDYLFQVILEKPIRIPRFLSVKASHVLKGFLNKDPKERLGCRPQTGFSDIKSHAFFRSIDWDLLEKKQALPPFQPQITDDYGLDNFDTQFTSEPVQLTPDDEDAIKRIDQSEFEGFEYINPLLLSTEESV

[4] = Toxicity in nude mouse xenografted with human GEO cells assessed as body weight loss at 12.5 mg/kg, po administered for 17 days; type: organism-based; settings: in vivo, 408 h, time 17 day
GEO [5] = experiment: Antitumor activity against human GEO cells xenografted in nude mouse assessed as tumor growth delay time at 6.25 mg/kg, po administered for 17 days relative to control; type: functional; settings: time 17 day

C[C@@]1(C(=O)Nc2ccc(F)nc2)CCCN1c1nc(Nc2cc(C3CC3)n[nH]2)c2cccn2n1 [BMS-754807]
inhibition in vivo at 6.25 mg/kg (GEO [1]): 86%
Time (GEO [2]): 30 days
IC50 [3]: > 50 µM
Activity [4]: -0.8 g
Time (GEO [5]): 3 days
